Results: PubChem BioAssay (NCI)
Values joined by “and” are separate entries in the source; they are usually repeats but may differ in a detail not shown here. Equal values may be shown once.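 Each compound was tested at five concentrations against cells in 96-well plates for 48 hours. At the GI50, growth is halved. At the TGI there is no net growth.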

Assays:
Assay in all cases: DTP human tumour cell line panel, 48 h
[1] = system: OVCAR-8 ovarian
[2] = system: SK-OV-3 ovarian
[3] = system: 786-0 renal
[4] = system: HCT-15 colon
[5] = system: SNB-19 CNS
[6] = system: NCI-H23 lung
[7] = system: MDA-MB-231 breast
[8] = system: SF-268 CNS
[9] = system: PC-3 prostate
[10] = system: HOP-92 NSCLC
[11] = system: SNB-75 CNS
[12] = system: BT-549 breast
[13] = system: HOP-62 NSCLC
[14] = system: NCI-H460 lung
[15] = system: U251 CNS
[16] = system: ACHN renal
[17] = system: A498 renal
[18] = system: CCRF-CEM leukemia
[19] = system: MOLT-4 leukemia
[20] = system: EKVX NSCLC
[21] = system: MDA-MB-435
[22] = system: M14 melanoma
[23] = system: SK-MEL-5 melanoma
[24] = system: NCI-H522 lung
[25] = system: OVCAR-4 ovarian
[26] = system: UACC-257 melanoma
[27] = system: COLO 205 colon
[28] = system: NCI-H226 lung
[29] = system: RXF 393 renal
[30] = system: SF-295 CNS
[31] = system: T-47D breast
[32] = system: HCT-116 colon
[33] = system: SK-MEL-28 melanoma
[34] = system: OVCAR-5 ovarian
[35] = system: OVCAR-3 ovarian
[36] = system: UACC-62 melanoma
[37] = system: IGROV1 ovarian
[38] = system: SN12C renal
[39] = system: NCI/ADR-RES ovarian
[40] = system: DU-145 prostate
[41] = system: KM12 colon
[42] = system: A549 NSCLC
[43] = system: CAKI-1 renal
[44] = system: HT29 colon
[45] = system: SF-539 CNS
[46] = system: SR leukemia
[47] = system: UO-31 renal
[48] = system: MALME-3M melanoma
[49] = system: RPMI-8226 leukemia
[50] = system: K-562 leukemia
[51] = system: HCC-2998 colon
[52] = system: TK-10 renal
[53] = system: LOX IMVI melanoma
[54] = system: MCF7 breast
[55] = system: SK-MEL-2 melanoma
[56] = system: SW-620 colon
[57] = system: HS 578T breast

Compound: c1ccc2c(Nc3ccc(Oc4ccc(Nc5c6ccccc6nc6ccccc56)cc4)cc3)c3ccccc3nc2c1
- TGI [1]: 0.526 µM
- TGI [2]: 4.21 µM
- TGI [3]: 0.0305 µM
- GI50 [4]: 0.019 µM and 0.017 µM
- TGI [4]: 0.0358 µM and 0.0379 µM
- GI50 [5]: 0.333 µM
- TGI [5]: 1.11 µM
- TGI [6]: 0.596 µM
- GI50 [7]: 0.197 µM and 0.139 µM
- TGI [7]: 0.566 µM and 0.268 µM
- GI50 [8]: 0.758 µM
- TGI [8]: 2.81 µM and 4.88 µM
- TGI [9]: 0.366 µM
- GI50 [10]: 0.285 µM
- TGI [10]: 1.5 µM and 4.69 µM
- GI50 [11]: 1.59 µM
- TGI [11]: 3.98 µM and 1.45 µM
- GI50 [12]: 2.07 µM and 1.87 µM
- TGI [12]: 4.54 µM and 4.4 µM
- GI50 [13]: 0.301 µM and 1.74 µM
- TGI [13]: 1.09 µM and 3.12 µM
- GI50 [14]: 0.346 µM
- TGI [14]: 1.38 µM and 5.93 µM
- GI50 [15]: 0.0212 µM and 0.145 µM
- TGI [15]: 0.0762 µM and 0.276 µM
- GI50 [16]: 0.0309 µM and 0.133 µM
- TGI [16]: 0.101 µM and 0.26 µM
- TGI [17]: 3.85 µM
- GI50 [18]: 0.217 µM
- TGI [18]: 0.719 µM
- GI50 [19]: 0.186 µM
- TGI [19]: 0.843 µM
- GI50 [20]: 2.5 µM
- TGI [20]: 5.17 µM and 4.63 µM
- TGI [21]: 0.4 µM
- TGI [22]: 1.05 µM
- TGI [23]: 3.4 µM
- GI50 [24]: 0.205 µM
- TGI [24]: 1.97 µM and 0.44 µM
- GI50 [25]: 0.278 µM
- TGI [25]: 0.637 µM and 0.145 µM
- GI50 [26]: 1.73 µM and 0.245 µM
- TGI [26]: 3.2 µM and 0.524 µM
- GI50 [27]: 1.52 µM
- TGI [27]: 3.65 µM and 2.45 µM
- TGI [28]: 3.81 µM
- GI50 [29]: 1.56 µM
- TGI [29]: 3.87 µM and > 27.2 µM
- TGI [30]: 0.829 µM
- GI50 [31]: 0.221 µM
- TGI [31]: 0.51 µM and 2.74 µM
- GI50 [32]: 0.155 µM and 0.0325 µM
- TGI [32]: 0.289 µM and 0.117 µM
- GI50 [33]: 1.44 µM
- TGI [34]: 1.06 µM
- TGI [35]: 0.366 µM
- GI50 [36]: 1.54 µM and 0.182 µM
- TGI [36]: 3.02 µM and 0.36 µM
- GI50 [37]: 0.292 µM and 1.16 µM
- TGI [37]: 1.21 µM and 2.64 µM
- GI50 [38]: 0.213 µM and 0.375 µM
- TGI [38]: 0.651 µM and 1.69 µM
- TGI [39]: 0.156 µM
- GI50 [40]: 0.403 µM
- TGI [40]: 1.25 µM and 0.929 µM
- GI50 [41]: 0.21 µM and 0.187 µM
- TGI [41]: 0.441 µM and 0.376 µM
- GI50 [42]: 0.265 µM and 0.227 µM
- TGI [42]: 0.792 µM and 0.54 µM
- GI50 [43]: 1.82 µM
- TGI [43]: 3.22 µM and 3.01 µM
- GI50 [44]: 0.237 µM and 0.212 µM
- TGI [44]: 0.569 µM and 0.496 µM
- GI50 [45]: 2.1 µM and 1.65 µM
- TGI [45]: 3.91 µM and 3.32 µM
- GI50 [46]: 0.126 µM
- TGI [46]: 0.323 µM
- GI50 [47]: 1.37 µM and 1.19 µM
- TGI [47]: 2.66 µM and 2.6 µM
- GI50 [48]: 2.08 µM
- TGI [48]: 3.02 µM and 3.82 µM
- GI50 [49]: 0.187 µM
- TGI [49]: 0.434 µM
- GI50 [50]: 0.32 µM
- TGI [50]: 1.08 µM
- TGI [51]: 0.0155 µM
- TGI [52]: 0.97 µM
- GI50 [53]: 0.0148 µM
- GI50 [54]: 0.176 µM
- GI50 [55]: 3.25 µM
- TGI [55]: 3.78 µM
- TGI [56]: 0.552 µM
- TGI [57]: 5.04 µM
